Laboratory results: ChEMBL document CHEMBL3217627, “Designing glucokinase activators with reduced hypoglycemia risk: discovery of N,N-dimethyl-5-(2-methyl-6-((5-methylpyrazin-2-yl)-carbamoyl)benzofuran-4-yloxy)pyrimidine-2-carboxamide as a clinical candidate for the treatment of type 2 diabetes mellitus” (Medchemcomm, 2011)
pEC50: −log10 of the molar value. ≈ marks a conversion by molar mass, not a printed value. Calls of active or inactive are those of the source. No cut-off for these calls is given here.

Legend:
Rattus norvegicus [1] = experiment: Antidiabetic activity in Sprague-Dawley rat assessed as reduction of post-prandial glucose excursion at 3 to 100 mg/kg, po administered for 60 mins followed by glucose challenge measured up to 120 mins by OGTT; type: functional, organism-based
Hexokinase-4 [2] = target: T1, Hexokinase-4 (Rattus norvegicus, UniProt P17712); experiment: Activation of rat glucokinase
T1 sequence (P17712 whole entry): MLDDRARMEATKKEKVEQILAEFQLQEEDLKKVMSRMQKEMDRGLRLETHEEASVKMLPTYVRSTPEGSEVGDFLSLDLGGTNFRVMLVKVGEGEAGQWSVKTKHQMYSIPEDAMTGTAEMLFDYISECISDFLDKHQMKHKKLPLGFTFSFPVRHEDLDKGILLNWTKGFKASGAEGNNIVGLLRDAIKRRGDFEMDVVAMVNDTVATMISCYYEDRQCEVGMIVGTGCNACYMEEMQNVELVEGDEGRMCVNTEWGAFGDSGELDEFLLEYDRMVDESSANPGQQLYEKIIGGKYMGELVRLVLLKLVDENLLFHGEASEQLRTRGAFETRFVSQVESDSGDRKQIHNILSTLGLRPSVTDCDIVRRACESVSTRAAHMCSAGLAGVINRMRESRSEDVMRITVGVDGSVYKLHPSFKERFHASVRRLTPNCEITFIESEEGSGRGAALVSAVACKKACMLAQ

[3] = Passive permeability across RRCK cells; type: ADME, cell-based, Canis lupus familiaris, MDCKII-LE; conditions: dog, MDCK; read-out: permeability
[4] = Intrinsic clearance in human liver microsomes; type: ADME; conditions: read-out: CLH
[5] = Kinetic solubility of the compound; type: physicochemical; conditions: read-out: Kinetic_solubility
Hexokinase-4 [6] = target: T2, Hexokinase-4 (Homo sapiens, UniProt P35557)
T2 sequence (P35557 whole entry): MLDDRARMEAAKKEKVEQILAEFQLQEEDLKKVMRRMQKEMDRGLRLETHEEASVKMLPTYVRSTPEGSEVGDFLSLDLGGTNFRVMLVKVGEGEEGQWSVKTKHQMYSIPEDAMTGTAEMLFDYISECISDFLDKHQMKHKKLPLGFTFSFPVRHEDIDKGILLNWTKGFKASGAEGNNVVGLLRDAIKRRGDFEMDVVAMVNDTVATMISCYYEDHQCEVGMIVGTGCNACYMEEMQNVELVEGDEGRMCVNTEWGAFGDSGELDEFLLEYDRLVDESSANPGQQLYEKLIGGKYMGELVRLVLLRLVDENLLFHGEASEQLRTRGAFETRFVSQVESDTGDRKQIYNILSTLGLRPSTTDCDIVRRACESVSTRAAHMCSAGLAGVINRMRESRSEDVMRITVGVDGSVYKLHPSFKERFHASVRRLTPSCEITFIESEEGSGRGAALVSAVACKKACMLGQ
Description: Activation of recombinant human glucokinase assessed as formation of glucose-6-phosphate by G6PDH/NADP coupled assay

Rattus norvegicus [7] = experiment: Toxicity in Sprague-Dawley rat assessed as hypoglycemic level at 30 to 100 mg/kg, po administered for 60 mins measured over first hour prior to OGTT; type: organism-based; parameters: dose 30-100 mg/kg, route oral; conditions: in vivo, 1 h
[8] = Selectivity ratio of EC50 for rat glucokinase to EC50 for human glucokinase
Rattus norvegicus [9] = experiment: Toxicity in po dosed Sprague-Dawley rat assessed as reduction in fasting plasma glucose level administered for 60 mins measured over first hour prior to OGTT; type: organism-based; conditions: in vivo, 1 h
Rattus norvegicus [10] = experiment: Antidiabetic activity in po dosed Sprague-Dawley rat assessed as reduction of post-prandial glucose excursion administered for 60 mins followed by glucose challenge measured up to 120 mins by OGTT; type: functional, organism-based
hERG (KCNH2) = hERG (KCNH2) (Homo sapiens, UniProt Q12809); experiment: Inhibition of dofetilide binding to human ERG at 10 uM relative to control; conditions: probe dofetilide
hERG (KCNH2), sequence (Q12809 whole entry): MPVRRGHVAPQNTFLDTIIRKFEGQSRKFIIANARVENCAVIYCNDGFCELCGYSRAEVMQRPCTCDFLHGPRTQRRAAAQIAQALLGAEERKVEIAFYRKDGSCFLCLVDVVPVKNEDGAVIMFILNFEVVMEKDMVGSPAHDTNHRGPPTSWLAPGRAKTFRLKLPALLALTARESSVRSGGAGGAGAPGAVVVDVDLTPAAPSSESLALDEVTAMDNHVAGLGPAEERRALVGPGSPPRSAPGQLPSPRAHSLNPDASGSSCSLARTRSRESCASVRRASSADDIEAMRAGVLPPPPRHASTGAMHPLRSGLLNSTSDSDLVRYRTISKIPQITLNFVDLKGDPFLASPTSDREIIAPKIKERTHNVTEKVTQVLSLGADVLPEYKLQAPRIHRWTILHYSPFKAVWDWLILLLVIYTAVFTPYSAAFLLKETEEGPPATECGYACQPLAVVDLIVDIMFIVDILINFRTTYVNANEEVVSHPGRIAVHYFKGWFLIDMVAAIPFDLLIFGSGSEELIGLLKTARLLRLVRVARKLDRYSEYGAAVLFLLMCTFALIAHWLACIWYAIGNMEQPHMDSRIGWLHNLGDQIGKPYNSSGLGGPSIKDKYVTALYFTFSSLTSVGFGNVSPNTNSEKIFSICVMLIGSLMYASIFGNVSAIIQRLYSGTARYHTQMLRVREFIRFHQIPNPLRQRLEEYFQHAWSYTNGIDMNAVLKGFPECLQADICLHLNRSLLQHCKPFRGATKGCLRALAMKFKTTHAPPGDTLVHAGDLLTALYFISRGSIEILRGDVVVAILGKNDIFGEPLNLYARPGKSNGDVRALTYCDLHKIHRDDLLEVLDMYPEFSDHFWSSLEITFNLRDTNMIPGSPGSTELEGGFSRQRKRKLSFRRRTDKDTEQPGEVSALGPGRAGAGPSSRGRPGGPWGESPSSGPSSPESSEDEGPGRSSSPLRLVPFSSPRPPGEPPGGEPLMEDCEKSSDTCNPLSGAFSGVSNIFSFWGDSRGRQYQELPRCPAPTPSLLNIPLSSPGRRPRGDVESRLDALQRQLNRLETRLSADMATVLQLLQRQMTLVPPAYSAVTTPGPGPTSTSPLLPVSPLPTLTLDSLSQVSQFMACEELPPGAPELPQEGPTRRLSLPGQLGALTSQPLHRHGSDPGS

pEC50 (Hexokinase-4 [2]) | Papp [3] | CLint scaled [4] | solubility kinetic [5] | pEC50 (Hexokinase-4 [6]) | Compound | Activity (Rattus norvegicus [1]) | Activity (Rattus norvegicus [7]) | Ratio EC50 [8] | Activity (Rattus norvegicus [9]) | Activity (Rattus norvegicus [10]) | inhibition at 10 µM (hERG (KCNH2))
7.00 |  |  |  |  | CS(=O)(=O)c1ccc([C@@H](C[C@H]2CCC(=O)C2)C(=O)Nc2cnccn2)cc1Cl [PIRAGLIATIN] | Active |  |  |  |  | 
 | 7.7 ×10⁻⁶ cm/s | 21.2 mL/min/kg | 78 µM (≈ 35.8 µg/mL) | 6.15 | Cc1cc2c(Oc3cnc(C(=O)N4CC(C)(C)C4)cn3)cc(C(=O)Nc3cnccn3)cc2o1 |  |  |  |  |  | 
 | 24.1 ×10⁻⁶ cm/s | < 8 mL/min/kg | 344 µM (≈ 154 µg/mL) | 6.82 | CCN(C)C(=O)c1cnc(Oc2cc(C(=O)Nc3cnc(C)cn3)cc3oc(C)cc23)cn1 |  |  |  |  |  | 6%
 | 15.8 ×10⁻⁶ cm/s | < 8.1 mL/min/kg | 4.5 µM (≈ 2.06 µg/mL) | 7.19 | Cc1cnc(NC(=O)c2cc(Oc3cnc(C(=O)N4CCCC4)cn3)c3cc(C)oc3c2)cn1 |  |  |  |  |  | 6%
 | 21.5 ×10⁻⁶ cm/s | < 10.6 mL/min/kg | 215 µM (≈ 92.8 µg/mL) | 6.32 | Cc1ccc(NC(=O)c2cc(Oc3cnc(C(=O)N(C)C)cn3)c3cc(C)oc3c2)nc1 |  |  |  |  |  | 2%
 | 9 ×10⁻⁶ cm/s | < 8 mL/min/kg | 137 µM (≈ 63.1 µg/mL) | < 5.30 | Cc1cc2c(Oc3cnc(C(=O)N4CC(C)(O)C4)cn3)cc(C(=O)Nc3cnccn3)cc2o1 |  |  |  |  |  | 10%
 | 21.8 ×10⁻⁶ cm/s | < 9.2 mL/min/kg | 158 µM (≈ 72.8 µg/mL) | < 5.30 | COC1CN(C(=O)c2cnc(Oc3cc(C(=O)Nc4cnccn4)cc4oc(C)cc34)cn2)C1 |  |  |  |  |  | 38%
 | 15.4 ×10⁻⁶ cm/s | < 8.2 mL/min/kg | 540 µM (≈ 227 µg/mL) | 6.48 | Cc1cc2c(Oc3cnc(C(=O)N(C)C)cn3)cc(C(=O)Nc3ccn(C)n3)cc2o1 |  |  |  |  |  | 8%
6.63 |  |  |  |  | CS(=O)(=O)c1ccc([C@@H](CC2CCCC2)C(=O)Nc2nccs2)cc1 [Ro-281675] |  |  |  |  |  | 
 | 14.9 ×10⁻⁶ cm/s | < 9.6 mL/min/kg | 49 µM (≈ 21.8 µg/mL) | 6.41 | Cc1cc2c(Oc3cnc(C(=O)N4CC(C)C4)cn3)cc(C(=O)Nc3cnccn3)cc2o1 |  |  |  |  |  | 11%
 | 5.9 ×10⁻⁶ cm/s | 17 mL/min/kg |  | 7.04 | Cc1cnc(NC(=O)c2cc(Oc3ccc(C(=O)N(C)C)cc3)c3cc(C)oc3c2)cn1 |  |  |  |  |  | 
 | 17.4 ×10⁻⁶ cm/s | < 9.3 mL/min/kg | 10 µM (≈ 4.44 µg/mL) | 7.07 | Cc1cnc(NC(=O)c2cc(Oc3cnc(C(=O)N4CCC4)cn3)c3cc(C)oc3c2)cn1 |  |  |  |  |  | 4%
 |  |  |  | < 4.00 | Cc1cc2c(Oc3cnc(C(=O)N(C)C)cn3)cc(C(=O)Nc3ncccn3)cc2o1 |  |  |  |  |  | 4%
 |  |  |  | 7.18 | Cc1csc(NC(=O)c2cc(Sc3nccn3C)c(F)cc2N)n1 |  |  |  |  |  | 

Compound | pEC50 (Hexokinase-4 [2]) | Papp [3] | CLint scaled [4] | solubility kinetic [5] | pEC50 (Hexokinase-4 [6]) | Activity (Rattus norvegicus [1]) | Activity (Rattus norvegicus [7]) | Ratio EC50 [8] | Activity (Rattus norvegicus [9]) | Activity (Rattus norvegicus [10]) | inhibition at 10 µM (hERG (KCNH2))
Cn1ccc(NC(=O)c2cc(Oc3ccc(C(=O)N4CCC4)c(F)c3)c3c(c2)OC(C)(C)C3)n1 | 7.30 |  |  |  | 7.57 |  | < 60 mg/dL | < 4 | Dose-dependent effect | Dose-dependent effect | 
